Consider 26 compounds from the supplement of paper PMC10011410.

± gives the standard deviation of the averaged measurements.

In the first experiment the test system is U-2 OS. Nature of the experiment: cell viability (CellTiter-Glo) relative to DMSO (% of control); higher = more viable. The note with it: 10 µM; 24 h. On the procedure:
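Cell viability of U-2 OS cells by CellTiter-Glo after 24 h compound treatment at 5, 10 and 20 uM (some at 40 and 80 uM), measured in parallel with the glutathione assay, as percent of DMSO control. Five technical replicate plates, averaged.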
With `Cn1c(=O)n(-c2ccc(C(C)(C)C#N)cc2)c2c3cc(-c4cnc5ccccc5c4)ccc3ncc21`, the cell viability turned out to be 62.4 ± 1.9.
The same measure, in the same setting: with `CCCCCC[C@H]1C(=O)O[C@H](C)[C@H](NC(=O)c2cccc(NC=O)c2O)C(=O)O[C@@H](C)[C@@H]1OC(=O)CC(C)C` the figure was 59.2 ± 1.6; with `COC(=O)[C@]1(C)CC[C@]2(C)CC[C@]3(C)C4=CC=C5C(=CC(=O)C(O)=C5C)[C@]4(C)CC[C@@]3(C)[C@@H]2C1`, 1.29 ± 0.58.

The same experiment, now with this note: 20 µM; 24 h.
`O=C(Nc1nc(-c2ccccc2)ns1)c1cccs1` registered a cell viability of 97.5 ± 1.8.
Turning to `Cc1cc2c(C(C)C)c(O)c(O)c(C=O)c2c(O)c1-c1c(C)cc2c(C(C)C)c(O)c(O)c(C=O)c2c1O`, the cell viability was determined as 68.2 ± 2.1.
As to `C=CC(=O)Nc1cc(Nc2nccc(-c3cn(C)c4ccccc34)n2)c(OC)cc1N(C)CCN(C)C`, the cell viability was determined as 35 ± 2.5.
`O=S1(=O)C=Cc2ccccc21` had a cell viability of 103 ± 5.8.
Same read-out and setting: under `CC(=O)c1c(O)c(C)c(O)c(Cc2c(O)c3c(c(C(=O)C=Cc4ccccc4)c2O)OC(C)(C)C=C3)c1O` stands 91.9 ± 4.7.
The compound `CC1(C)CC[C@]2(C(=O)n3ccnc3)CC[C@]3(C)[C@H](C(=O)C=C4[C@@]5(C)C=C(C#N)C(=O)C(C)(C)[C@@H]5CC[C@]43C)[C@@H]2C1` returned a cell viability of 94.4 ± 8.6.
`COC[C@H]1OC(=O)c2coc3c2[C@@]1(C)C1=C(C3=O)[C@@H]2CCC(=O)[C@@]2(C)C[C@H]1OC(C)=O`: the cell viability came out at 69.3 ± 1.1.
The same measure, in the same setting: under `c1ccc(Nc2nc(-c3ccccc3)ns2)cc1` stands 97.7 ± 4; under `C=CC(=O)Nc1cccc(Oc2nc(Nc3ccc(N4CCN(C)CC4)cc3OC)ncc2Cl)c1`, 39.8 ± 1.5.
The compound `Cn1nnnc1SC1=CS(=O)(=O)c2ccccc21` showed a cell viability of 6.9 ± 1.4.
Take `CCC(=O)N1CCN(c2ccc(-n3c(=O)ccc4cnc5ccc(-c6cnc7ccccc7c6)cc5c43)cc2C(F)(F)F)CC1`: the cell viability amounted to 61.4 ± 4.
On to `O=C1CC(Nc2ccccc2)C(=O)N1Cc1ccccc1` (stereo not drawn), for which the cell viability was determined as 100 ± 4.4.
The compound `C[C@@H]1C[C@H]2O[C@@H]2/C=C\C=C\C(=O)Cc2c(Cl)c(O)cc(O)c2C(=O)O1` registered a cell viability of 4.77 ± 0.71.
The same measure, in the same setting: with `C=CC(=O)Nc1cc2c(Nc3ccc(F)c(Cl)c3)ncnc2cc1OCCCN1CCOCC1` the figure was 4.85 ± 1.7; with `O=C1/C(=C/c2ccc(O)c(Br)c2)CCC/C1=C\c1ccc(O)c(Br)c1`, 94.1 ± 5.6.
The same measure, in the same setting: under `CNC(=O)Nc1ccc2c(c1)CC[C@@]21OC(=O)N(CC(=O)N(Cc2ccc(F)cc2)[C@@H](C)C(F)(F)F)C1=O` stands 85.3 ± 5; under `O=C(O[C@@H]1Cc2c(O)cc(O)cc2O[C@@H]1c1cc(O)c(O)c(O)c1)c1cc(O)c(O)c(O)c1`, 69.1 ± 19; under `O=S1(=O)C=C(Sc2nn(-c3ccccc3)c(=S)s2)c2ccccc21`, 36.6 ± 8.1.
Same read-out and setting: under `C=CC(=O)Nc1ccc(CN2C(=O)N(c3cc(OC)cc(OC)c3)Cc3cnc(Nc4ccc(N5CCN(C)CC5)cc4)nc32)cc1` stands 69.2 ± 8.3; under `CCCCCCCCCCCCCCCc1cccc(O)c1C(=O)O`, 100 ± 2.9.
`Cl.Cl.O=C(O)Cn1nnc(-c2ccc(CN(CCCCOc3ccc(CN4CCCC4)cc3)CCc3ccccc3)cc2)n1` yielded a cell viability of 98.8 ± 6.4.
The same measure, in the same setting: under `COc1cc2ncnc(Nc3ccc(F)c(Cl)c3)c2cc1NC(=O)/C=C/CN1CCCCC1` stands 22.4 ± 5.3; under `Cc1cc(-c2ccccc2)cc(C(=O)NNS(=O)(=O)c2ccccc2)c1F`, 98.9 ± 2.5.
Still for that read-out and setting: under `Cn1c(=O)n(-c2ccc(C(C)(C)C#N)cc2)c2c3cc(-c4cnc5ccccc5c4)ccc3ncc21` stands 63.2 ± 3.4; under `CCCCCC[C@H]1C(=O)O[C@H](C)[C@H](NC(=O)c2cccc(NC=O)c2O)C(=O)O[C@@H](C)[C@@H]1OC(=O)CC(C)C`, 56.2 ± 3.1.
Same read-out and setting: under `COC(=O)[C@]1(C)CC[C@]2(C)CC[C@]3(C)C4=CC=C5C(=CC(=O)C(O)=C5C)[C@]4(C)CC[C@@]3(C)[C@@H]2C1` stands 0.733 ± 0.056.

The same experiment, now with this note: 40 µM; 24 h.
Compound `Cc1cc2c(C(C)C)c(O)c(O)c(C=O)c2c(O)c1-c1c(C)cc2c(C(C)C)c(O)c(O)c(C=O)c2c1O` returned a cell viability of 42.7 ± 11.
The same measure, in the same setting: with `CC(=O)c1c(O)c(C)c(O)c(Cc2c(O)c3c(c(C(=O)C=Cc4ccccc4)c2O)OC(C)(C)C=C3)c1O` the figure was 89 ± 4.1.
With `O=C1/C(=C/c2ccc(O)c(Br)c2)CCC/C1=C\c1ccc(O)c(Br)c1`, the cell viability came out at 88.5 ± 5.9.
The same measure, in the same setting: under `O=C(O[C@@H]1Cc2c(O)cc(O)cc2O[C@@H]1c1cc(O)c(O)c(O)c1)c1cc(O)c(O)c(O)c1` stands 83 ± 14.
As to `CCCCCCCCCCCCCCCc1cccc(O)c1C(=O)O`, the cell viability was determined as 104 ± 4.9.
Same read-out and setting: with `Cl.Cl.O=C(O)Cn1nnc(-c2ccc(CN(CCCCOc3ccc(CN4CCCC4)cc3)CCc3ccccc3)cc2)n1` the figure was 88.9 ± 11.

Still in this experiment, the particulars now being: 80 µM; 24 h.
Compound `Cc1cc2c(C(C)C)c(O)c(O)c(C=O)c2c(O)c1-c1c(C)cc2c(C(C)C)c(O)c(O)c(C=O)c2c1O` showed a cell viability of 5.12 ± 1.6.
`CC(=O)c1c(O)c(C)c(O)c(Cc2c(O)c3c(c(C(=O)C=Cc4ccccc4)c2O)OC(C)(C)C=C3)c1O` yielded a cell viability of 78.4 ± 1.5.
The same measure, in the same setting: with `O=C1/C(=C/c2ccc(O)c(Br)c2)CCC/C1=C\c1ccc(O)c(Br)c1` the figure was 11.9 ± 2.3; with `O=C(O[C@@H]1Cc2c(O)cc(O)cc2O[C@@H]1c1cc(O)c(O)c(O)c1)c1cc(O)c(O)c(O)c1`, 43.2 ± 2.7; with `CCCCCCCCCCCCCCCc1cccc(O)c1C(=O)O`, 101 ± 5.3.
`Cl.Cl.O=C(O)Cn1nnc(-c2ccc(CN(CCCCOc3ccc(CN4CCCC4)cc3)CCc3ccccc3)cc2)n1` yielded a cell viability of 30.9 ± 15.

Another experiment concerns U-2 OS. Nature of the experiment: intracellular GSH:GSSG ratio (calculated); higher = more reduced glutathione pool. The note with it: 5 µM; 24 h. On the procedure:
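Intracellular glutathione in U-2 OS cells after 24 h compound treatment at 5, 10 and 20 uM (some at 40 and 80 uM). Total glutathione and GSSG were measured with the GSH/GSSG-Glo kit, and the GSH:GSSG ratio was calculated. Mean of five technical replicate plates.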
In the case of `O=C(Nc1nc(-c2ccccc2)ns1)c1cccs1`, the “intracellular GSH:GSSG ratio” value is 16.9.
Same read-out and setting: with `Cc1cc2c(C(C)C)c(O)c(O)c(C=O)c2c(O)c1-c1c(C)cc2c(C(C)C)c(O)c(O)c(C=O)c2c1O` the figure was 16.4.
